Four compounds from patent US8232317B2, “Method for increasing hair growth” (E-L Management Corp., priority 2003, dated 2012) can be followed below.

The structures appear in SMILES notation. “And” between values parts separate entries of the source, which are not always exact repeats. Equal entries are not always repeated.

Experiment [1] has as its system Normal Human Dermal Papilla Cells. Kind of experiment: DNA synthesis ([H]3-thymidine incorporation) in dermal papilla cells. Format: cell-based. Conditions: for [H] counts to denote incorporated Thymidine (relative DNA synthesis): individual replicates. How it is done: Methods: Normal Human Dermal Papilla Cells were obtained from Cell Applications Incorporated (San Diego, Calif.) which isolates the dermal papilla cells from hair plugs. Papilla cells were grown to 70% in 24 well plates. […] These treatments were carried out for 24 hours before [H]^3-Thymidine label (1 μCi/ml) was added in each well. DNA synthesis, an indicator of cell proliferation, was measured 24 hours later as a function of [H]^3-Thymidine incorporation.

The next experiment deals with hair plugs. Kind of experiment: Hair growth in hair plugs exposed to creatine. Format: cell-based. Conditions: creatine 1 mM; for Actual length of hair plugs / Hair growth normalized to length at day 0: individual plugs; for Average hair growth: n=6. How it is done: Methods: Hair plugs were obtained from East Wood Medical Hair Transplant Surgery (Garden City, N.Y.). These hair plugs were equilibrated in hair plug media as described in the literature (DMEM, 10% FBS, 1% PS, 25 mg insulin, 25 μg fungizone). These hair plugs were measured under the microscope one the first day of arrival and treated with creatine at 1 mM (n=6 for control and creatine group respectively). These hair plugs were then kept in the incubator at 37° C. in 5% CO2. On day 3, 7, & 10, re-treatments were made as well as measurements.

On to `Nc1ncnc2c1ncn2[C@@H]1O[C@H](COP(=O)(O)O)[C@@H](O)[C@H]1O` [AMP], for which the “% increase compared to control (thymidine uptake / DNA synthesis)” value is 1493% in experiment [1] (0.25 mM), 1930% in experiment [1] (0.5 mM) and 1449% in experiment [1] (1 mM).
Take `Nc1ncnc2c1ncn2[C@@H]1O[C@H](COP(=O)(O)OP(=O)(O)OP(=O)(O)O)[C@@H](O)[C@H]1O` [ATP]: the “% increase compared to control (thymidine uptake / DNA synthesis)” value is on record as 1411% in experiment [1] (0.25 mM) and 1201% in experiment [1] (0.5 mM).
Take `CN(CC(=O)O)C(=N)N` [Creatine, creatine]: the “% increase compared to control (thymidine uptake / DNA synthesis)” value is 35.66% in experiment [1] (0.25 mM); 36% in experiment [1] (0.25 mM, listed as creatine); 24.78% in experiment [1] (0.5 mM); 25% in experiment [1] (0.5 mM, listed as creatine); 5.697% in experiment [1] (1 mM); 6% in experiment [1] (1 mM, listed as creatine). For the same compound, the Average thymidine uptake in experiment [1] (0.25 mM) is listed as 25229.47; in experiment [1] (0.5 mM) it was 23206.37; in experiment [1] (1 mM), 19657.6. For the same compound, the “[H] counts to denote incorporated Thymidine (relative DNA synthesis)” value in experiment [1] (0.25 mM) is 27441.5 counts and 24848.2 counts and 23398.7 counts; in experiment [1] (0.5 mM) it was 21850.6 counts and 23029.9 counts and 24738.6 counts; in experiment [1] (1 mM) it was 20190.6 counts and 18789.8 counts and 19992.4 counts. The “Actual length of hair plugs” value in the experiment on hair plugs (Day 0 (baseline)) was 3.8 mm and 6.3 mm and 8.1 mm and 8.3 mm and 8.2 mm and 7.6 mm; in the experiment on hair plugs (Day 3) it was 4.7 mm and 7.1 mm and 9.5 mm and 9.1 mm (2×) and 8.5 mm; in the experiment with hair plugs (Day 7), 5 mm and 7 mm and 9.6 mm (2×) and 9.8 mm and 9.2 mm; with hair plugs (Day 10), 5.5 mm and 7 mm and 9.7 mm (2×) and 9.8 mm and 9.2 mm. Moreover, the Average hair growth with hair plugs (Day 0) is 0 mm; in the experiment with hair plugs (Day 3), 0.95 mm; in the experiment on hair plugs (Day 7), 1.32 mm and 1.317 mm; in the experiment with hair plugs (Day 10) it was 1.43 mm and 1.433 mm. For the same compound, the “% increase compared to untreated (hair growth)” value in the experiment with hair plugs (Day 3) worked out at 96.6%; in the experiment on hair plugs (Day 7), 79.5%; with hair plugs (Day 10) it was 75.5%. Besides, the “Hair growth normalized to length at day 0” value in the experiment with hair plugs (Day 3) is 0.9 mm (3×) and 0.8 mm (2×) and 1.4 mm; in the experiment on hair plugs (Day 7), 1.2 mm and 0.7 mm and 1.5 mm and 1.3 mm and 1.6 mm (2×); with hair plugs (Day 10) it was 1.7 mm and 0.7 mm and 1.6 mm (3×) and 1.4 mm. For the same compound, in the experiment with hair plugs (over 10 days), the “Increase in hair growth compared to the untreated plugs” value is reported as “two fold”.
With `O=C(O)CC(=O)C(=O)O` [Oxaloacetate, oxaloacetic acid (oxaloacetate)], the “% increase compared to control (thymidine uptake / DNA synthesis)” value in experiment [1] (0.25 mM) came out at 22%; in experiment [1] (0.25 mM, listed as Oxal), 21.57%; in experiment [1] (0.5 mM), 33%; in experiment [1] (0.5 mM, listed as Oxal) it was 33.26%; in experiment [1] (1 mM), 38%; in experiment [1] (1 mM, listed as Oxal), 37.58%. Moreover, the Average thymidine uptake is 22609.37 in experiment [1] (0.25 mM), 24782.97 in experiment [1] (0.5 mM) and 25586.67 in experiment [1] (1 mM). In addition, the “[H] counts to denote incorporated Thymidine (relative DNA synthesis)” value was 26907.8 counts and 21897.4 counts and 19022.9 counts in experiment [1] (0.25 mM); 24483.7 counts and 21467.8 counts and 28397.4 counts in experiment [1] (0.5 mM); 25537.3 counts and 25092.4 counts and 26130.3 counts in experiment [1] (1 mM).
